Data published in US20220378777A1, “COMPOSITIONS AND METHODS FOR TREATING ALCOHOL USE DISORDER OR A RELATED CONDITION THEREOF” (priority 2019, published 2022).

What was measured:
Wistar rats = test: Adolescent AR-R17779 exposure, adult operant beer self-administration (acquisition, extinction, relapse); type: in vivo, rat
Description: (§1) Statistical Analysis. All statistical analyses followed the procedures/flowchart indicated by Keppel and Zedeck (1986). Briefly, the experiments examining the acquisition of alcohol consumption utilized the dependent measure of average weekly alcohol intake. The overall analyses were mixed factor ANOVAs with between subject factors of drug dose and EtOH exposure history (when applicable) and a within subject factor of Week. The statistical analyses surveying relapse drinking examined the average EtOH intake for the three days prior to deprivation and daily EtOH intake values following re-exposure. Post-hoc comparisons for between subject factors were performed with Tukey's b analyses. The Tukey's b post-hoc comparison is a modified Tukey post-hoc comparison that reduces the prohibitive penalty for unequal sample size. There is a single assumption of ANOVAs that cannot be violated. […] Therefore, within subject variables should not be treated like between subject variables and analyzed with forced ANOVAs and inappropriate post-hoc analyses. Proper within subject post-hoc analyses are t-tests and orthogonal contrasts (Keppel and Zeddeck, 1986). Given the general lack of understanding of orthogonal contrasts, the findings from t-test analyses are being reported. Concerns of Type I error rate inflation is eliminated by the proper reading of Rodgers (1967). Type 1 error rate inflations is Ψi (i=1, . . . , J−1), and not Bonferroni, an improper estimate. Given the effect size of the current data set there is no likelihood of Type 1 error rate inflation for any reported analyses (c.f., Rodgers and Roberts, 2012; Roberts, 2011).
Effects of exposure to the α7 agonist AR-R17779 during early adolescence on adult EtOH consumption (acquisition, maintenance, extinction, craving, and relapse). The current experiment was conducted to generalize the effects of exposure to an α7 NAchR receptor agonist during adolescence on adult alcohol consumption in non-selected (non-genetically predisposed rats). Brief exposure to AR during adolescence in Wistar rats produced similar alterations in adult beer consumption. Male and female Wistar rats were exposed to AR (0, 3, or 10 mg/kg) on PND 29, 30, 33, 35, 36, and 37 (no alcohol exposure during adolescence). On PND 75 rats were allowed to self-administer beer (9% IPA) under operant conditions.

[1] = tested on: alcohol preferring (P) rats; test: Exposure to α7 agonist AR-R17779 during early adolescence, adult EtOH consumption (acquisition and relapse drinking); type: in vivo, rat; conditions: for duration of alcohol deprivation effect (ADE): vs baseline intake
Description: (§2) Subjects. The alcohol-preferring (P) rats used in the current experiments were from the standard P stock maintained by the Animal Breeding Core of the Indiana University Alcohol Research Center (IUARC). Animals used in this study were maintained in facilities fully accredited by the Association for the Assessment and Accreditation of Laboratory Animal Care. All research protocols were approved by the IUSM Institutional Animal Care and Use Committee (IUSM IACUC) and were in accordance with the guidelines of the Institutional Care and Use Committee of the National Institute on Drug Abuse, the NIH, and the Guide for the Care and Use of Laboratory Animals (2011).
Effects of exposure to the α7 agonist AR-R17779 during early adolescence on adult EtOH consumption. Adolescent male (n=14) and female (n=13) alcohol preferring (P) rats were exposed to the α7 nicotinic receptor agonist, AR-R17779 ((2S)-2′H-spiro[4-azabicyclo[2.2.2]octane-2,5′-[1,3]oxazolidin]-2′-one) (AR; Tocris) on PND 29, 30, 33, 35, 36, and 37. The doses of AR-R17779 was 0 (saline controls), 3 or 10 mg/kg (all drugs administered i.p.). […] The doses of AR employed are typical for peripheral administered studies and results in observed alterations in specific behaviors. All rats were group housed between PND 26 and 73 (adulthood). Subjects only received treatment with AR_on the days specified.
as §1

α7 nicotinic receptor = α7 nicotinic receptor (Homo sapiens, UniProt P36544); conditions: cited from earlier work
α7 nicotinic receptor, sequence (P36544 23-502): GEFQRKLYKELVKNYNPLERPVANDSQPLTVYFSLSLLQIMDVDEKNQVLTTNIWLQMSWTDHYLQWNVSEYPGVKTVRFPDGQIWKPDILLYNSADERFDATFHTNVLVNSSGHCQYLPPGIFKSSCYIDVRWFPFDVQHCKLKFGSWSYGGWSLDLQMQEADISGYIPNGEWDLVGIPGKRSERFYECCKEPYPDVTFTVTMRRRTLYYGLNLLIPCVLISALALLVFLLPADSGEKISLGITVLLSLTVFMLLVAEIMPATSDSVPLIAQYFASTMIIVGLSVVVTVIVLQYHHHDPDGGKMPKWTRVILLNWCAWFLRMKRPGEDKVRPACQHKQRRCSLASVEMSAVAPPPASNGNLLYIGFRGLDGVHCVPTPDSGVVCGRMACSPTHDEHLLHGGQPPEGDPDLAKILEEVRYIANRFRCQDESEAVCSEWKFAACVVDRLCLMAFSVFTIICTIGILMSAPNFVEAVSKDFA

P rats = test: Pretreatment with α7 NAM dehydronorketamine prior to adolescent binge-like alcohol exposure (AIE), adult EtOH consumption; type: in vivo, rat; conditions: for effect on deleterious effects of adolescent alcohol exposure (adult alcohol intake, weeks 1-2): males and females
Description: as §2, §1
Effects of pretreatment with an α7 NAM dehydronorketamine prior to binge-like exposure during adolescence on adult EtOH consumption. There were 5 treatment groups. Adolescent male (n=24) and female (n=26) P rats were used in the experiment. The AIE exposure began on PND 28. Rats were given 4 g/kg alcohol (25% v/v; gavage) every Monday, Tuesday, Thursday and Friday (4 days a week; 3 days with no alcohol exposure) from post-natal day 28-48. Control (CON) groups received an equivalent volume administration of water. In the AIE groups, rats were injected (i.p.) with 0 (saline), 10 or 50 mg/kg of the α7 nicotinic receptor NAM dehydronorketamine (DHNK; Santa Cruz biotechnology) 2 hours prior to AIE exposure. CON groups received (i.p.) injections of saline or 50 mg/kg DHNK 2 hours prior to water gavage exposure. All rats were group housed between post-natal day 48 and 73 (adulthood). Pretreatment and gavage administration occurred during PND 28, 29, 30, 31, 34, 35, 37, 39, 40, 41, 44, 45, 47, and 48. Subjects were not exposed to DHNK any time after PND48.

α3β4 = α3β4 (Homo sapiens, UniProt P30926+P32297); conditions: read-out: binding to α3β4 IC50; cited from earlier work
α3β4, sequence (P32297 32-505): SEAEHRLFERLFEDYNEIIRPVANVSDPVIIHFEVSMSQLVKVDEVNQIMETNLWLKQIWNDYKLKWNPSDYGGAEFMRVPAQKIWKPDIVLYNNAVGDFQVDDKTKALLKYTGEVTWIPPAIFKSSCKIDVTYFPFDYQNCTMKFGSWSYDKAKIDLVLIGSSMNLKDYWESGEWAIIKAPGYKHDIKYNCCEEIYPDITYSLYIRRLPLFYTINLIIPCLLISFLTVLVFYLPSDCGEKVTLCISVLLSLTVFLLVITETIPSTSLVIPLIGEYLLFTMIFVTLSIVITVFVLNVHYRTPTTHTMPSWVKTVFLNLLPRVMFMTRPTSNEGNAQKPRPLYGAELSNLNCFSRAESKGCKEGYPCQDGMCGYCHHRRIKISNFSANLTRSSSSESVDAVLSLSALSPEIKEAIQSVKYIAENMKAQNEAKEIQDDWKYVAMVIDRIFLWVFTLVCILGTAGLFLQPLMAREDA
α3β4, sequence (P30926 22-498): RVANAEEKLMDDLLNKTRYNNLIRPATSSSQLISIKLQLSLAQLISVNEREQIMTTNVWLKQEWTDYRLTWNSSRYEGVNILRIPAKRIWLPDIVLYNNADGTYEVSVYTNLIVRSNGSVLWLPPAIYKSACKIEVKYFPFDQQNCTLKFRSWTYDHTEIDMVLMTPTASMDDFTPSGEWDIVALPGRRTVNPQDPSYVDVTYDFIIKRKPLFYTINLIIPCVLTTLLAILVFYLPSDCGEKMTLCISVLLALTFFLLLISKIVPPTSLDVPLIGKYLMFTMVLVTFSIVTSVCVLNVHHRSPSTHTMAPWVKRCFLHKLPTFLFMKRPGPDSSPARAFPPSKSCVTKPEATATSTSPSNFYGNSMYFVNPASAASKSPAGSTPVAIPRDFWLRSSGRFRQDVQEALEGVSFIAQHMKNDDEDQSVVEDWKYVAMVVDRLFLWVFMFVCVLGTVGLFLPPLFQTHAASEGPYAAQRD

female P rats = test: Pretreatment with α7 NAM SB-277011-A prior to adolescent binge alcohol exposure (ABAE), adult EtOH consumption; type: in vivo, rat
Experimental: Effects of exposure to the α7 negative allosteric modulator (NAM) SB-277011-A prior to adolescence binge alcohol exposure on adult EtOH consumption. Currently, there are 3 commercially available α7 NAMs: DHNK, SB-277011-A (SB), and Butaclamol (AY-23,028). SB is also a selective D3 antagonist. Butaclamol is a typical antipsychotic that is also a non-selective dopamine receptor antagonist. Referring now to FIG. 7, the ability of SB to prevent ABAE-induced increases were assessed in adult EtOH consumption. Briefly, female P rats were exposed to the standard ABAE protocol. ABAE and CON rats were injected (i.p.) with 0 (water), 1 or 5 mg/kg SB (Sigma) 2 hours before gavage treatment. […] Statistically, there was a significant ABAE X SB Dose X Day interaction term (F12,244=2.3; p<0.01). Therefore, the data sets indicate that despite having different off-target sites of activation (SB-D3 antagonist), both α7 NAMs prevented the deleterious consequences of ABAE.

[2] = 3 and 10 mg/kg AR during adolescence
[3] = 1 or 5 mg/kg SB i.p. 2 hours before gavage

For `O=C1NC[C@@]2(CN3CCC2CC3)O1` [AR-R17779, (2S)-2′H-spiro[4-azabicyclo[2.2.2]octane-2,5′-[1,3]oxazolidin]-2′-one], the “beer self-administration during adulthood (FIG. 4, *)” value (Wistar rats; [2]) was 3 and 10 AR>saline, the “beer self-administration during adulthood (FIG. 4, +)” value (Wistar rats; [2]) was 10>3>saline and the “acquisition of alcohol self-administration, sessions 7-14” value (Wistar rats; AR 3 or 10 mg/kg during adolescence, beer (9% IPA), operant) was “acquired alcohol self-administration faster than controls”. The “rate of extinction learning” value (Wistar rats; adolescent exposure, no alcohol available) was “retarded the rate of extinction learning”, the “relapse drinking (individual ANOVAs)” value (Wistar rats; alcohol re-exposure, p values<0.001) was “enhanced relapse drinking” and the “lever responding, extinction session 3” value (Wistar rats; highest dose of AR-R17779) was “responded more on the lever previously associated with delivery of alcohol than all other groups”. For the same compound, the “alcohol consumed during re-exposure sessions (post-hoc)” value (Wistar rats; vs saline controls) was “consumed more alcohol than control rats (saline) during the initial 3 re-exposure sessions”, the “lever responding, extinction sessions 1 and 2” value (Wistar rats; vs saline treated rats, Tukey's b) was “responded more on the lever previously associated with the delivery of alcohol” and the “duration of alcohol deprivation effect (ADE)” value ([1]; female P rats, 3 mg/kg AR during adolescence) was 2 days. For the same compound, the “duration of alcohol deprivation effect (ADE)” value ([1]; female P rats, 10 mg/kg AR during adolescence) was 3 days, the “adult alcohol intake, 1st week of alcohol access” value ([1]; female P rats, 10 mg/kg AR i.p. during early adolescence vs saline or 3 mg/kg, Tukey's b) was “consumed more alcohol than rats administered saline or 3 mg/kg AR during adolescence” and the “relapse EtOH drinking, Day 1 of EtOH re-exposure” value ([1]; female P rats, 10 mg/kg AR vs 3 mg/kg group) was “consumed more alcohol than the 3 mg/kg group”. For the same compound, the “relapse EtOH drinking, 2nd re-exposure day” value ([1]; female P rats, 10 mg/kg AR vs saline) was “consumed more alcohol than rats administered saline”, the “adult alcohol intake, 2nd week of alcohol access” value ([1]; female P rats, 3 and 10 mg/kg AR i.p. during early adolescence vs saline, p<0.05) was 10 mg/kg>3 mg/kg>saline and the “relapse EtOH drinking, re-exposure day 3” value ([1]; female P rats, 3 and 10 mg/kg AR vs saline) was 10 mg/kg>3 mg/kg>Saline. The “relapse EtOH drinking (FIG. 3, +)” value ([1]; female and male P rats, 10 mg/kg during adolescence vs saline) was “consumed more alcohol than saline controls”, the “average alcohol intake in adulthood (FIG. 2, #)” value ([1]; female and male rats, 3 mg/kg during adolescence) was 3 mg/kg>saline and the “average alcohol intake in adulthood (FIG. 2, *)” value ([1]; female and male rats, 10 mg/kg during adolescence) was 10 mg/kg AR-R17779>3 mg/kg and saline. The “ADE, EtOH intake vs baseline” value ([1]; male P rats, 3 mg/kg AR during adolescence, p<0.05) was “elevated levels of EtOH intake during the 1st re-exposure day compared to baseline intake”, the “ADE, EtOH intake vs baseline” value ([1]; male P rats, 10 mg/kg AR during adolescence) was “Evidence of an ADE was detected during re-exposure days 1-3” and the “adult alcohol intake, 1st and 2nd weeks of alcohol access” value ([1]; male P rats, 10 mg/kg AR i.p. during early adolescence vs saline or 3 mg/kg, p<0.05) was “consumed more alcohol than rats administered saline or 3 mg/kg AR”. For the same compound, the “relapse EtOH drinking, group differences during re-exposure days 1-4” value ([1]; male P rats, AR 0, 3, 10 mg/kg, p>0.083) was “no significant group differences” and the “affinity for receptors other than α7 nicotinic receptor” value (α7 nicotinic receptor) was “no or minimal affinity for all other examined receptors”.
For `NC1(c2ccccc2Cl)CCC=CC1=O` (centres unmarked) [DHNK, 5,6-dehydronorketamine], the “effect on deleterious effects of adolescent alcohol exposure (adult alcohol intake, weeks 1-2)” value (P rats; P rats, 10 mg/kg DHNK i.p. 2 hours prior to AIE) was “blocked the deleterious effects of adolescent alcohol exposure”, the “effect on deleterious effects of adolescent alcohol exposure (adult alcohol intake, weeks 1-2)” value (P rats; P rats, 50 mg/kg DHNK i.p. 2 hours prior to AIE) was “blocked the deleterious effects of adolescent alcohol exposure” and the “adult alcohol drinking without adolescent alcohol (CON-50 mg/kg DHNK)” value (P rats; P rats, 50 mg/kg DHNK i.p. prior to water gavage) was “did not alter alcohol drinking during adulthood”. The “effect on AIE-enhanced relapse drinking” value (P rats; P rats, DHNK pretreatment) was “altered the enhancement in relapse drinking produced by AIE exposure”, the “relapse alcohol drinking vs baseline” value (P rats; female P rats, AIE-10 mg/kg DHNK, paired t-tests) was “increase in alcohol consumption (compared to baseline during the 1st re-exposure day)” and the “relapse alcohol drinking vs baseline” value (P rats; female P rats, ATE-50 mg/kg DHNK, paired t-tests) was “increase in alcohol consumption during the first three re-exposure days”. The “relapse alcohol drinking vs baseline” value (P rats; female P rats, CON-50 mg/kg DHNK, paired t-tests) was “significant increase in alcohol drinking during the 1st re-exposure day”, the “relapse alcohol drinking vs baseline” value (P rats; male P rats, AIE-10 mg/kg DHNK) was “increase in drinking during the 1st re-exposure day” and the “relapse alcohol drinking vs baseline (ADE)” value (P rats; male P rats, AIE-50 mg/kg) was “did not display an ADE”. For the same compound, the “relapse alcohol drinking vs baseline (ADE)” value (P rats; male P rats, CON-50 mg/kg) was “did not display an ADE”, the “effect on AIE-induced increase of adult alcohol consumption (overall)” value (P rats; male and female P rats, DHNK i.p. 2 hours prior to AIE) was “blocked the ability of adolescent alcohol exposure to increase alcohol consumption during adulthood” and the IC50 (α3β4) was > 200 µM.
With `N#Cc1ccc2c(c1)CCN(CC[C@H]1CC[C@H](NC(=O)c3ccnc4ccccc34)CC1)C2` [SB-277011-A, N-{trans-4-[2-(6-cyano-3,4-dihydroisoquinolin-2(1H)-yl)ethyl]cyclohexyl}quinoline-4-carboxamide] the “relapse EtOH drinking, ABAE vs corresponding CON group (FIG. 8, +)” value (female P rats; 1 mg/kg SB prior to ABAE) was “consumed more alcohol than corresponding CON group”, the “adult EtOH consumption (FIG. 7, +)” value (female P rats; 1 mg/kg vs 5 mg/kg SB) was 1 mg/kg>5 mg/kg SB rats and the “adult EtOH consumption (FIG. 7, #)” value (female P rats; 5 mg/kg SB vs water-ABAE and 1 mg/kg SB) was “water-ABAE and 1 mg/kg SB>5 mg/kg SB rats”. The “adult EtOH consumption (FIG. 7, *)” value (female P rats; 1 and 5 mg/kg SB vs water-ABAE) was “water-ABAE rats >1 mg and 5 mg/kg SB rats”, the “effect on ABAE-induced enhancement of EtOH consumption during relapse (ADE)” value (female P rats; [3]) was “prevented ABAE-induced enhancement of EtOH consumption during relapse (ADE) conditions” and the “effect on ABAE-induced increase in EtOH consumption during acquisition” value (female P rats; [3]) was “prevented the ABAE-induced increase in EtOH consumption during acquisition”.
